Legend:
[1] = Hepatic extraction ratio in human liver microsomes at 1 uM in presence of NADPH by LC-MS/MS method; assay type: ADME; conditions: read-out: ERH
[2] = molecular target: Serine/threonine-protein kinase B-raf (Homo sapiens, UniProt P15056, V600E); assay: Inhibition of B-Raf V600E mutant (unknown origin) using biotinylated Mek substrate incubated for 60 mins by amplified luminescence proximity homogeneous assay
[3] = Antitumor activity against human A375 cells xenografted in Nu/Nu mouse assessed as tumor volume level at 1 mg/kg, dosed BID for 14 days commencing on day 19 measured after 14 days post-first dose relative to initial tumor volume; assay type: functional, A-375
[4] = Antitumor activity against human A375 cells xenografted in Nu/Nu mouse assessed as tumor volume level at 3 mg/kg, dosed BID for 14 days commencing on day 19 measured after 14 days post-first dose relative to initial tumor volume; assay type: functional, A-375
[5] = Antitumor activity against human A375 cells xenografted in Nu/Nu mouse assessed as tumor volume level at 10 mg/kg, dosed BID for 14 days commencing on day 19 measured after 14 days post-first dose relative to initial tumor volume; assay type: functional, A-375
[6] = Antitumor activity against human A375 cells xenografted in Nu/Nu mouse assessed as tumor volume level at 20 mg/kg, dosed BID for 14 days commencing on day 19 measured after 14 days post-first dose relative to initial tumor volume; assay type: functional, A-375

Sequence of Serine/threonine-protein kinase B-raf (P15056 2-766 V600E limits assumed): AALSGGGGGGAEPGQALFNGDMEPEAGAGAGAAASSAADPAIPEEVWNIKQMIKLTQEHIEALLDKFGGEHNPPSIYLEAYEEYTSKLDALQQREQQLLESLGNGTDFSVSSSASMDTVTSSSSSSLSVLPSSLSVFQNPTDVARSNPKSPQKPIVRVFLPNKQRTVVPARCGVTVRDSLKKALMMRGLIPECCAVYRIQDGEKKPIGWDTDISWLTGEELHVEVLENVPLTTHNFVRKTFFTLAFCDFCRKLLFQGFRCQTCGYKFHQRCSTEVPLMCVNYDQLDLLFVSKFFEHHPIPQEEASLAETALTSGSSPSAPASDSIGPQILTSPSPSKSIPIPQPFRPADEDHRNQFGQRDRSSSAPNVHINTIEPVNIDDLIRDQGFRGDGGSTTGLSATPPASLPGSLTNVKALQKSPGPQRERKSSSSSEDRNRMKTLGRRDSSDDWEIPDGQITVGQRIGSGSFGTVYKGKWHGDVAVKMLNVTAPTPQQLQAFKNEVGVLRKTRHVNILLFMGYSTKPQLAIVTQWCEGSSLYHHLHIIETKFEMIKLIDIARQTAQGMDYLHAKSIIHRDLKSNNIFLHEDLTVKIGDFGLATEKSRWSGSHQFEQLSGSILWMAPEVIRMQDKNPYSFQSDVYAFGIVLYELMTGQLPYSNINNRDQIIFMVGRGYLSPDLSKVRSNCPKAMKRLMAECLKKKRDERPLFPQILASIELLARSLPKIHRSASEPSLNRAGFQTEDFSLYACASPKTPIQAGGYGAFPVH

COC(=O)N[C@@H](C)CNc1nccc(-c2cn(C(C)C)nc2-c2cccc(NS(C)(=O)=O)c2F)n1
hepatic extraction ratio at 1 µM [1]: < 0.31

COC(=O)N[C@@H](C)CNc1nccc(-c2cn(C(C)C)nc2-c2cc(C)cc(NS(C)(=O)=O)c2Cl)n1
IC50 [2]: 1 nM

COC(=O)N[C@@H](C)CNc1nccc(-c2cn(C(C)C)nc2-c2cc(C)cc(NS(C)(=O)=O)c2F)n1
IC50 [2]: 0.95 nM

COC(=O)N[C@@H](C)CNc1nccc(-c2cn(C(C)C)nc2-c2cc(Cl)cc(NS(C)(=O)=O)c2F)n1 [ENCORAFENIB]
Activity [3]: 20 - 50% | Activity [4]: 20% | Activity [5]: <80% | Activity [6]: <80%

Source: ChEMBL document CHEMBL3880435, “Compounds and compositions as protein kinase inhibitors” (2013)
